In US20240174690A1, “ANNULATED 2-AMINO-3-CYANO THIOPHENES AND DERIVATIVES FOR THE TREATMENT OF CANCER” (BOEHRINGER INGELHEIM INTERNATIONAL GMBH, priority 2021, published 2024) one finds IC50 data, which are given here for 29 molecules.

For one test, the system named is LOVO cells. The test can be described thus: LOVO CTG proliferation assay (120 h) (CRC, G13D). Format: cell-based. The settings on record: Homo sapiens, CTG 120 h. On the procedure:
LOVO CTG Proliferation Assay (120 h) (CRC, G13D)
LOVO cells (ATCC CCL-229) are dispensed into 384-well plates, flat and clear bottom (Greiner, PNr. 781091) at a density of 1000 cells per well in 60 μL DMEM (Sigma D6429)+10% Fetal Calf Serum (HyClone, PNr.: SH30084.03) and incubated at 37° C. in a CO2 incubator overnight. The next day, compounds (10 mM stock in DMSO) are added with the ECHO acoustic liquid handler system (Beckman Coulter), including DMSO controls. Plates are incubated for 120 h, and cell viability is measured using CellTiter-Glo luminescent cell viability reagent (Promega product code G7570). Viability (stated as percent of control) is defined as relative luminescence units RLU of each well divided by the RLU of cells in DMSO controls. IC50 values are determined from viability measurements by non-linear regression using a four-parameter model.

The next test deals with KRAS (G12C)::SOS1 (Homo sapiens (Human), UniProt P01116, C118S/C51S/C80L/G12C). Put plainly: KRAS::SOS1 AlphaScreen binding assay, KRAS G12C. Put shortly: (§1)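 KRAS 1-169 (biotinylated avi-tag) with GST-SOS1 564-1049 and 10 µM GDP in PBS/0.1% BSA/0.05% Tween 20: WT and G13D 10 nM each with 10 nM SOS1; G12D 10 nM and G12C 7.5 nM with 5 nM SOS1. After 30 min, glutathione acceptor/streptavidin donor beads were added for 60 min at RT in the dark, then AlphaScreen read; 4-parameter IC50.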
Sequence of KRAS (G12C)::SOS1 (P01116 other isoform, or with tags, fused parts or gaps G12C/C51S/C80L/C118S): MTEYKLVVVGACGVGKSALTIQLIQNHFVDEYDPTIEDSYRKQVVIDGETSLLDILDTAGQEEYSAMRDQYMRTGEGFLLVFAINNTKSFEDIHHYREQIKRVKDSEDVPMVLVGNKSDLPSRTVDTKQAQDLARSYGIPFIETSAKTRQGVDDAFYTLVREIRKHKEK

For another test, the target named is KRAS (G12D)::SOS1 (Homo sapiens (Human), UniProt P01116, G12D). Put plainly: KRAS::SOS1 AlphaScreen binding assay, KRAS G12D. The procedure, abridged: as §1
Sequence of KRAS (G12D)::SOS1 (P01116 other isoform, or with tags, fused parts or gaps G12D): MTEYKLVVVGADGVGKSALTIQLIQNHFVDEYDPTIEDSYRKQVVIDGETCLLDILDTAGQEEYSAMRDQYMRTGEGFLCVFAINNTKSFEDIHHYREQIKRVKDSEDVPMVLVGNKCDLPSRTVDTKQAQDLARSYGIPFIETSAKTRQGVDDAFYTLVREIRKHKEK

As to `C[C@H](Oc1cc(N2CC[C@H](N(C)C)C2)nc(-c2noc3c2CCC[C@@]32CCCc3sc(N)c(C#N)c32)n1)[C@@H]1CCCN1C` [II-49], the values for the IC50 in the test on LOVO cells, at KRAS (G12C)::SOS1 and at KRAS (G12D)::SOS1 were 651 nM, 9 nM and 1 nM, respectively.

On to `C[C@H](Oc1cc(N2C[C@H](C)N[C@@H](C)C2)nc(-c2onc3c2CCC[C@@]32CCCc3sc(N)c(C#N)c32)n1)[C@@H]1CCCN1C` [I-6], for which the IC50 in the test on LOVO cells is 1220 nM; at KRAS (G12C)::SOS1, 5 nM; at KRAS (G12D)::SOS1, 1 nM.

As to `C[C@H](Oc1cc(-c2ccc(N)nc2)nc(-c2noc3c2CCC[C@@]32CCCc3sc(N)c(C#N)c32)n1)[C@@H]1CCCN1C` [II-101], the 50% inhibitory concentration (IC50) with LOVO cells is 1020 nM; at KRAS (G12C)::SOS1 it was 2 nM; at KRAS (G12D)::SOS1, 4 nM.

In the case of `C[C@H](Oc1cc(-n2cc(Cn3cncn3)nn2)nc(-c2noc3c2CCC[C@@]32CCCc3sc(N)c(C#N)c32)n1)[C@@H]1CCCN1C` [II-124], the figures for the IC50 in the test on LOVO cells, at KRAS (G12C)::SOS1 and at KRAS (G12D)::SOS1 were 128 nM, 2 nM and 2 nM, respectively.

As to `CO[C@@H]1C[C@@H]([C@H](C)Oc2cc(-n3ccnc3)nc(-c3noc4c3CCC[C@@]43CCCc4sc(N)c(C#N)c43)n2)N(C)C1` [II-58], the values for the IC50 in the test on LOVO cells, on KRAS (G12C)::SOS1 and at KRAS (G12D)::SOS1 were 113 nM, 2 nM and 3 nM, respectively.

With `C[C@H](Oc1cc(-c2cn(C3COC3)nn2)nc(-c2noc3c2CCC[C@@]32CCCc3sc(N)c(C#N)c32)n1)[C@@H]1CCCN1C` [II-100], the figures for the IC50 in the test on LOVO cells, at KRAS (G12C)::SOS1 and on KRAS (G12D)::SOS1 were 83 nM, 3 nM and 6 nM, respectively.

For the molecule `C[C@H](Oc1cc(-n2cccc3cnnc2-3)nc(-c2noc3c2CCC[C@@]32CCCc3sc(N)c(C#N)c32)n1)[C@@H]1CCCN1C` [II-92], the IC50 in the test on LOVO cells was determined as 467 nM; on KRAS (G12C)::SOS1, 5 nM; at KRAS (G12D)::SOS1 it was 14 nM.

For the molecule `C[C@H](Oc1cc(N2Cc3cnn(C)c3C2)nc(-c2noc3c2CCC[C@@]32CCCc3sc(N)c(C#N)c32)n1)[C@@H]1CCCN1C` [II-63], the results for the IC50 in the test on LOVO cells, on KRAS (G12C)::SOS1 and at KRAS (G12D)::SOS1 were 640 nM, 3 nM and 12 nM, respectively.

Consider `Cc1cn(C)nc1-c1cc(O[C@@H](C)[C@@H]2CCCN2C)nc(-c2noc3c2CCC[C@@]32CCCc3sc(N)c(C#N)c32)n1` [II-68], for which the IC50 with LOVO cells was 894 nM; at KRAS (G12C)::SOS1 it was 2 nM; on KRAS (G12D)::SOS1 it was 9 nM.

On to `CO[C@@H]1C[C@@H]([C@H](C)Oc2cc(-c3ccn(C)n3)nc(-c3noc4c3CCC[C@@]43CCCc4sc(N)c(C#N)c43)n2)N(C)C1` [II-91], for which the IC50 is 136 nM with LOVO cells, 2 nM on KRAS (G12C)::SOS1 and 4 nM on KRAS (G12D)::SOS1.

Consider `C[C@H](Oc1cc(N2CCNC3(CC3)C2)nc(-c2noc3c2CCC[C@@]32CCCc3sc(N)c(C#N)c32)n1)[C@@H]1CCCN1C` [II-54], for which the IC50 in the test on LOVO cells was found to be 531 nM; on KRAS (G12C)::SOS1, 2 nM; on KRAS (G12D)::SOS1, 1 nM.

As for `C[C@H](Oc1cc(-n2ccnc2Cl)nc(-c2noc3c2CCC[C@@]32CCCc3sc(N)c(C#N)c32)n1)[C@@H]1CCCN1C` [II-93], the results for the IC50 in the test with LOVO cells, on KRAS (G12C)::SOS1 and on KRAS (G12D)::SOS1 were 136 nM, 3 nM and 3 nM, respectively.

`C[C@H](Oc1cc(-n2ccnc2)nc(-c2noc3c2CCC[C@@]32CCCc3sc(N)c(C#N)c32)n1)[C@@H]1C[C@@H](F)CN1C` [II-120]: the IC50 turned out to be 401 nM in the test on LOVO cells, 2 nM on KRAS (G12C)::SOS1 and 9 nM at KRAS (G12D)::SOS1.

With `C[C@H](Oc1cc(-c2ccncc2)nc(-c2noc3c2CCC[C@@]32CCCc3sc(N)c(C#N)c32)n1)[C@@H]1CCCN1C` [II-78], the concentration for half-maximal inhibition (IC50) with LOVO cells is 175 nM; at KRAS (G12C)::SOS1, 2 nM; on KRAS (G12D)::SOS1, 4 nM.

On to `C[C@H](Oc1cc(-c2cc[nH]n2)nc(-c2noc3c2CCC[C@@]32CCCc3sc(N)c(C#N)c32)n1)[C@@H]1CCCN1C` [II-71], for which the IC50 came to 50 nM in the test on LOVO cells, 2 nM on KRAS (G12C)::SOS1 and 2 nM at KRAS (G12D)::SOS1.

Regarding `C[C@H](Oc1cc(-c2cnsc2)nc(-c2noc3c2CCC[C@@]32CCCc3sc(N)c(C#N)c32)n1)[C@@H]1CCCN1C` [II-111], the IC50 came out at 309 nM in the test on LOVO cells, 2 nM on KRAS (G12C)::SOS1 and 3 nM at KRAS (G12D)::SOS1.

On to `C[C@H](Oc1cc(-n2cc(C3CC3)nn2)nc(-c2noc3c2CCC[C@@]32CCCc3sc(N)c(C#N)c32)n1)[C@@H]1CCCN1C` [II-118], for which the IC50 with LOVO cells was 295 nM; on KRAS (G12C)::SOS1, 2 nM; at KRAS (G12D)::SOS1, 4 nM.

With `C[C@H](Oc1cc(N2CCC[C@H](O)C2)nc(-c2noc3c2CCC[C@@]32CCCc3sc(N)c(C#N)c32)n1)[C@@H]1CCCN1C` [II-57], the IC50 was 500 nM with LOVO cells, 2 nM on KRAS (G12C)::SOS1 and 2 nM on KRAS (G12D)::SOS1.

`C[C@H](Oc1cc(C2=CCOCC2)nc(-c2noc3c2CCC[C@@]32CCCc3sc(N)c(C#N)c32)n1)[C@@H]1CCCN1C` [II-67]: the IC50 in the test on LOVO cells was found to be 49 nM; at KRAS (G12C)::SOS1 it was 2 nM; at KRAS (G12D)::SOS1, 3 nM.

Turning to `C[C@H](Oc1cc(-c2ccn(-c3ccccc3)n2)nc(-c2noc3c2CCC[C@@]32CCCc3sc(N)c(C#N)c32)n1)[C@@H]1CCCN1C` [II-89], the results for the IC50 with LOVO cells, on KRAS (G12C)::SOS1 and on KRAS (G12D)::SOS1 were 453 nM, 3 nM and 12 nM, respectively.

`C[C@H](Oc1cc(N2CCN(C)C2=O)nc(-c2noc3c2CCC[C@@]32CCCc3sc(N)c(C#N)c32)n1)[C@@H]1CCCN1C` [II-75]: the IC50 in the test on LOVO cells stood at 279 nM; at KRAS (G12C)::SOS1, 2 nM; at KRAS (G12D)::SOS1, 1 nM.

For the molecule `C[C@H](Oc1cc(-n2cncn2)nc(-c2noc3c2CCC[C@@]32CCCc3sc(N)c(C#N)c32)n1)[C@@H]1CCCN1C` [II-70], the IC50 in the test on LOVO cells was found to be 77 nM; at KRAS (G12C)::SOS1, 2 nM; on KRAS (G12D)::SOS1, 2 nM.

`C[C@H](Oc1cc(N2CCOC3(CC3)C2)nc(-c2noc3c2CCC[C@@]32CCCc3sc(N)c(C#N)c32)n1)[C@@H]1CCCN1C` [II-61]: the IC50 came out at 276 nM in the test on LOVO cells, 2 nM at KRAS (G12C)::SOS1 and 3 nM at KRAS (G12D)::SOS1.

As for `C[C@H](Oc1cc(N2CCN(C)CC2)nc(-c2noc3c2CCC[C@@]32CCCc3sc(N)c(C#N)c32)n1)[C@@H]1CCCN1C` [II-55], the IC50 with LOVO cells came out at 1090 nM; on KRAS (G12C)::SOS1, 4 nM; at KRAS (G12D)::SOS1, 1 nM.

`C[C@H](Oc1cc([C@@H]2CCOC2)nc(-c2noc3c2CCC[C@@]32CCCc3sc(N)c(C#N)c32)n1)[C@@H]1CCCN1C` [II-94]: the figures for the IC50 in the test on LOVO cells, at KRAS (G12C)::SOS1 and on KRAS (G12D)::SOS1 were 51 nM, 1 nM and 1 nM, respectively.

As to `C[C@H](Oc1cc(-n2cc(Cn3ccnc3)nn2)nc(-c2noc3c2CCC[C@@]32CCCc3sc(N)c(C#N)c32)n1)[C@@H]1CCCN1C` [II-113], the results for the IC50 in the test on LOVO cells, on KRAS (G12C)::SOS1 and at KRAS (G12D)::SOS1 were 123 nM, 2 nM and 2 nM, respectively.

In the case of `C[C@H](Oc1cc(N2CC[C@H](N(C)C)C2)nc(-c2onc3c2CCC[C@@]32CCCc3sc(N)c(C#N)c32)n1)[C@@H]1CCCN1C` [I-11], the IC50 with LOVO cells turned out to be 1710 nM; on KRAS (G12C)::SOS1, 7 nM; at KRAS (G12D)::SOS1, 1 nM.

For the molecule `C[C@H](Oc1cc(-n2ccc(-c3ccccn3)n2)nc(-c2noc3c2CCC[C@@]32CCCc3sc(N)c(C#N)c32)n1)[C@@H]1CCCN1C` [II-119], the IC50 was 152 nM in the test on LOVO cells, 2 nM on KRAS (G12C)::SOS1 and 2 nM on KRAS (G12D)::SOS1.

For `CNC(=O)c1cn(-c2cc(O[C@@H](C)[C@@H]3CCCN3C)nc(-c3noc4c3CCC[C@@]43CCCc4sc(N)c(C#N)c43)n2)nn1` [II-122], the IC50 in the test on LOVO cells came out at 180 nM; on KRAS (G12C)::SOS1, 2 nM; at KRAS (G12D)::SOS1, 4 nM.
